Tests used:
Assay type in all cases: in vivo
[1] = system: barnyardgrass (Echinochloa crus-galli); assay: Test A pre-/postemergence plant response
Outline: (§1)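 Approximately ten days after concurrent pre- and postemergence spraying in a greenhouse, plants were compared with untreated controls and rated visually for injury, 0 = no effect to 100 = complete control. Preemergence spray was directed onto loam/sand soil; postemergence targeted 1–2 leaf seedlings.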

[2] = system: corn (Zea mays); assay: Test A pre-/postemergence plant response
Outline: as §1

[3] = system: giant foxtail (Setaria faberii); assay: Test A pre-/postemergence plant response
Outline: as §1

[4] = system: large crabgrass (Digitaria sanguinalis); assay: Test A pre-/postemergence plant response
Outline: as §1

[5] = system: morningglory (Ipomoea spp.); assay: Test A pre-/postemergence plant response
Outline: as §1

[6] = system: pigweed (Amaranthus retroflexus); assay: Test A pre-/postemergence plant response
Outline: as §1

[7] = system: velvetleaf (Abutilon theophrasti); assay: Test A pre-/postemergence plant response
Outline: as §1

[8] = system: wheat (Triticum aestivum); assay: Test A pre-/postemergence plant response
Outline: as §1

[9] = system: canarygrass (Phalaris minor); assay: Test B postemergence plant response; settings: Postemergence; for Canarygrass plant response rating: 250 g ai/ha, scale 0 to 100
Outline: (§2)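 Plants grown in peat/vermiculite medium were sprayed postemergence at 2–18 cm height (1- to 4-leaf stage). After 13–15 days in the greenhouse, response was rated visually against untreated controls on a 0–100 scale (0 no effect, 100 complete control).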

[10] = system: chickweed (Stellaria media); assay: Test B postemergence plant response; settings: Postemergence; for Chickweed plant response rating: 250 g ai/ha, scale 0 to 100
Outline: as §2

[11] = system: windgrass (Apera spica-venti); assay: Test B postemergence plant response; settings: Postemergence, scale 0 (no effect) to 100 (complete control)
Outline: as §2

[12] = system: winter barley (Hordeum vulgare); assay: Test B postemergence plant response; settings: Postemergence; for Barley plant response rating: 250 g ai/ha, scale 0 to 100
Outline: as §2

[13] = Postemergence, 125 g ai/ha, visual injury, 0 to 100 scale (0 no effect, 100 complete control), approx. ten days
[14] = Postemergence, 500 g ai/ha, 0 to 100 scale, 0 = no effect, 100 = complete control, approx. ten days
[15] = Preemergence, 125 g ai/ha, 0 to 100 scale, 0 = no effect, 100 = complete control
[16] = Preemergence, 500 g ai/ha, visual injury, 0 to 100 scale (0 no effect, 100 complete control), approx. ten days
[17] = 31 g ai/ha, scale 0 to 100 (0 no effect, 100 complete control)
[18] = 62 g ai/ha, scale 0 (no effect) to 100 (complete control), 13 to 15 days
[19] = 125 g ai/ha, visual rating after 13 to 15 days, scale 0 (no effect) to 100 (complete control)
[20] = 125 g ai/ha, visual rating after 13 to 15 days

## Cc1ccccc1-n1c(-c2cccc(Cl)c2)ncc(C(=O)C2=C(O)CCCC2=O)c1=O [Compound 36]
[1]; [13]
  Barnyardgrass plant response rating: 90
[1]; [14]
  Plant response rating, Barnyardgrass: 100
[1]; [15]
  Plant response rating, Barnyardgrass: 10
[1]; [16]
  Plant response rating, Barnyardgrass: 50
[2]; [13]
  Corn plant response rating: 0
[2]; [14]
  Plant response rating, Corn: 60
[2]; [15]
  Plant response rating, Corn: 0
[2]; [16]
  Plant response rating, Corn: 0
[3]; [13]
  Foxtail, Giant plant response rating: 80
[3]; [14]
  Plant response rating, Foxtail, Giant: 100
[3]; [15]
  Plant response rating, Foxtail, Giant: 10
[3]; [16]
  Plant response rating, Foxtail, Giant: 60
[4]; [13]
  Crabgrass, Large plant response rating: 80
[4]; [14]
  Plant response rating, Crabgrass, Large: 100
[4]; [15]
  Plant response rating, Crabgrass, Large: 10
[4]; [16]
  Plant response rating, Crabgrass, Large: 80
[5]; [13]
  Morningglory plant response rating: 50
[5]; [14]
  Plant response rating, Morningglory: 100
[5]; [15]
  Plant response rating, Morningglory: 0
[5]; [16]
  Plant response rating, Morningglory: 30
[6]; [13]
  Pigweed plant response rating: 90
[6]; [14]
  Plant response rating, Pigweed: 100
[6]; [15]
  Plant response rating, Pigweed: 0
[6]; [16]
  Plant response rating, Pigweed: 80
[7]; [13]
  Velvetleaf plant response rating: 100
[7]; [14]
  Plant response rating, Velvetleaf: 100
[7]; [15]
  Plant response rating, Velvetleaf: 60
[7]; [16]
  Plant response rating, Velvetleaf: 100
[8]; [13]
  Wheat plant response rating: 0
[8]; [14]
  Plant response rating, Wheat: 0
[8]; [15]
  Plant response rating, Wheat: 0
[8]; [16]
  Plant response rating, Wheat: 20
[9]; [17]
  Plant response rating, Canarygrass: 40
[9]; [18]
  Plant response rating, Canarygrass: 45
[9]; [19]
  Plant response rating, Canarygrass: 50
[9]
  Canarygrass plant response rating: 50
[10]; [17]
  Plant response rating, Chickweed: 85
[10]; [18]
  Plant response rating, Chickweed: 98
[10]; [19]
  Plant response rating, Chickweed: 100
[10]
  Chickweed plant response rating: 100
[11]; 62 g ai/ha, 13 to 15 days
  Plant response rating, Windgrass: 70
[11]; [20]
  Plant response rating, Windgrass: 80
[12]; [17]
  Plant response rating, Barley: 5
[12]; [18]
  Plant response rating, Barley: 10
[12]; [19]
  Plant response rating, Barley: 20

## O=C1CCCC(O)=C1C(=O)c1cnc(-c2ccccc2)n(-c2cccc(Br)c2)c1=O [Compound 38]
[1]; [13]
  Barnyardgrass plant response rating: 60
[1]; [14]
  Plant response rating, Barnyardgrass: 90
[1]; [15]
  Plant response rating, Barnyardgrass: 10
[1]; [16]
  Plant response rating, Barnyardgrass: 90
[2]; [13]
  Corn plant response rating: 0
[2]; [14]
  Plant response rating, Corn: 60
[2]; [15]
  Plant response rating, Corn: 0
[2]; [16]
  Plant response rating, Corn: 30
[3]; [13]
  Foxtail, Giant plant response rating: 50
[3]; [14]
  Plant response rating, Foxtail, Giant: 90
[3]; [15]
  Plant response rating, Foxtail, Giant: 10
[3]; [16]
  Plant response rating, Foxtail, Giant: 80
[4]; [13]
  Crabgrass, Large plant response rating: 60
[4]; [14]
  Plant response rating, Crabgrass, Large: 100
[4]; [15]
  Plant response rating, Crabgrass, Large: 30
[4]; [16]
  Plant response rating, Crabgrass, Large: 100
[5]; [13]
  Morningglory plant response rating: 100
[5]; [14]
  Plant response rating, Morningglory: 100
[5]; [15]
  Plant response rating, Morningglory: 0
[5]; [16]
  Plant response rating, Morningglory: 70
[6]; [13]
  Pigweed plant response rating: 100
[6]; [14]
  Plant response rating, Pigweed: 100
[6]; [15]
  Plant response rating, Pigweed: 50
[6]; [16]
  Plant response rating, Pigweed: 100
[7]; [13]
  Velvetleaf plant response rating: 100
[7]; [14]
  Plant response rating, Velvetleaf: 100
[7]; [15]
  Plant response rating, Velvetleaf: 70
[7]; [16]
  Plant response rating, Velvetleaf: 100
[8]; [13]
  Wheat plant response rating: 0
[8]; [14]
  Plant response rating, Wheat: 40
[8]; [15]
  Plant response rating, Wheat: 0
[8]; [16]
  Plant response rating, Wheat: 20
[9]; [17]
  Plant response rating, Canarygrass: 10
[9]; [18]
  Plant response rating, Canarygrass: 10
[9]; [19]
  Plant response rating, Canarygrass: 10
[9]
  Canarygrass plant response rating: 45
[10]; [17]
  Plant response rating, Chickweed: 85
[10]; [18]
  Plant response rating, Chickweed: 90
[10]; [19]
  Plant response rating, Chickweed: 100
[10]
  Chickweed plant response rating: 100
[11]; 62 g ai/ha, 13 to 15 days
  Plant response rating, Windgrass: 80
[11]; [20]
  Plant response rating, Windgrass: 85
[12]; [17]
  Plant response rating, Barley: 0
[12]; [18]
  Plant response rating, Barley: 0
[12]; [19]
  Plant response rating, Barley: 0
[12]
  Barley plant response rating: 35

## Cc1c(Cl)cccc1-n1c(-c2ccccc2)ncc(C(=O)C2=C(O)CCCC2=O)c1=O [Compound 40]
[1]; [13]
  Barnyardgrass plant response rating: 90
[1]; [14]
  Plant response rating, Barnyardgrass: 90
[1]; [15]
  Plant response rating, Barnyardgrass: 10
[1]; [16]
  Plant response rating, Barnyardgrass: 100
[2]; [13]
  Corn plant response rating: 0
[2]; [14]
  Plant response rating, Corn: 50
[2]; [15]
  Plant response rating, Corn: 0
[2]; [16]
  Plant response rating, Corn: 0
[3]; [13]
  Foxtail, Giant plant response rating: 90
[3]; [14]
  Plant response rating, Foxtail, Giant: 100
[3]; [15]
  Plant response rating, Foxtail, Giant: 50
[3]; [16]
  Plant response rating, Foxtail, Giant: 90
[4]; [13]
  Crabgrass, Large plant response rating: 90
[4]; [14]
  Plant response rating, Crabgrass, Large: 100
[4]; [15]
  Plant response rating, Crabgrass, Large: 60
[4]; [16]
  Plant response rating, Crabgrass, Large: 100
[5]; [13]
  Morningglory plant response rating: 50
[5]; [14]
  Plant response rating, Morningglory: 100
[5]; [15]
  Plant response rating, Morningglory: 10
[5]; [16]
  Plant response rating, Morningglory: 80
[6]; [13]
  Pigweed plant response rating: 100
[6]; [14]
  Plant response rating, Pigweed: 100
[6]; [15]
  Plant response rating, Pigweed: 70
[6]; [16]
  Plant response rating, Pigweed: 90
[7]; [13]
  Velvetleaf plant response rating: 100
[7]; [14]
  Plant response rating, Velvetleaf: 100
[7]; [15]
  Plant response rating, Velvetleaf: 70
[7]; [16]
  Plant response rating, Velvetleaf: 100
[8]; [13]
  Wheat plant response rating: 0
[8]; [14]
  Plant response rating, Wheat: 0
[8]; [15]
  Plant response rating, Wheat: 0
[8]; [16]
  Plant response rating, Wheat: 0
[9]; [17]
  Plant response rating, Canarygrass: 20
[9]; [18]
  Plant response rating, Canarygrass: 20
[9]; [19]
  Plant response rating, Canarygrass: 30
[9]
  Canarygrass plant response rating: 35
[10]; [17]
  Plant response rating, Chickweed: 100
[10]; [18]
  Plant response rating, Chickweed: 100
[10]; [19]
  Plant response rating, Chickweed: 100
[10]
  Chickweed plant response rating: 100
[11]; 62 g ai/ha, 13 to 15 days
  Plant response rating, Windgrass: 70
[11]; [20]
  Plant response rating, Windgrass: 80
[12]; [17]
  Plant response rating, Barley: 0
[12]; [18]
  Plant response rating, Barley: 0
[12]; [19]
  Plant response rating, Barley: 10
[12]
  Barley plant response rating: 10

## CCCCc1ncc(C(=O)C2=C(O)CCCC2=O)c(=O)n1-c1ccccc1 [Compound 42]
[1]; [13]
  Barnyardgrass plant response rating: 60
[1]; [14]
  Plant response rating, Barnyardgrass: 90
[1]; [15]
  Plant response rating, Barnyardgrass: 0
[1]; [16]
  Plant response rating, Barnyardgrass: 60
[2]; [13]
  Corn plant response rating: 0
[2]; [14]
  Plant response rating, Corn: 30
[2]; [15]
  Plant response rating, Corn: 0
[2]; [16]
  Plant response rating, Corn: 0
[3]; [13]
  Foxtail, Giant plant response rating: 40
[3]; [14]
  Plant response rating, Foxtail, Giant: 70
[3]; [15]
  Plant response rating, Foxtail, Giant: 10
[3]; [16]
  Plant response rating, Foxtail, Giant: 40
[4]; [13]
  Crabgrass, Large plant response rating: 60
[4]; [14]
  Plant response rating, Crabgrass, Large: 80
[4]; [15]
  Plant response rating, Crabgrass, Large: 40
[4]; [16]
  Plant response rating, Crabgrass, Large: 90
[5]; [13]
  Morningglory plant response rating: 80
[5]; [14]
  Plant response rating, Morningglory: 80
[5]; [15]
  Plant response rating, Morningglory: 0
[5]; [16]
  Plant response rating, Morningglory: 50
[6]; [13]
  Pigweed plant response rating: 100
[6]; [14]
  Plant response rating, Pigweed: 100
[6]; [15]
  Plant response rating, Pigweed: 90
[6]; [16]
  Plant response rating, Pigweed: 100
[7]; [13]
  Velvetleaf plant response rating: 100
[7]; [14]
  Plant response rating, Velvetleaf: 100
[7]; [15]
  Plant response rating, Velvetleaf: 70
[7]; [16]
  Plant response rating, Velvetleaf: 100
[8]; [13]
  Wheat plant response rating: 0
[8]; [14]
  Plant response rating, Wheat: 0
[8]; [15]
  Plant response rating, Wheat: 0
[8]; [16]
  Plant response rating, Wheat: 0
[9]; [17]
  Plant response rating, Canarygrass: 0
[9]; [18]
  Plant response rating, Canarygrass: 0
[9]; [19]
  Plant response rating, Canarygrass: 0
[9]
  Canarygrass plant response rating: 0
[10]; [17]
  Plant response rating, Chickweed: 60
[10]; [18]
  Plant response rating, Chickweed: 70
[10]; [19]
  Plant response rating, Chickweed: 80
[10]
  Chickweed plant response rating: 95
[11]; 62 g ai/ha, 13 to 15 days
  Plant response rating, Windgrass: 60
[11]; [20]
  Plant response rating, Windgrass: 70
[12]; [17]
  Plant response rating, Barley: 0
[12]; [18]
  Plant response rating, Barley: 0
[12]; [19]
  Plant response rating, Barley: 0
[12]
  Barley plant response rating: 5

Reference: US8952024B2, “Herbicidal pyrimidone derivatives” (E I du Pont de Nemours and Company, priority 2009, dated 2015)
